Data as given in patent US8034827B2, “Phenanthridine derivatives as bradykinin antagonists” (Richter Gegeon Nyrt., priority 2005, dated 2011).
Counter-ions that a name gives are not always drawn. Blank lines part the entries; values can stand above or below the molecule they belong to.

What was measured:
[1] = molecular target: T1, human recombinant bradykinin1 receptors (Homo sapiens, UniProt P46663); test: Human recombinant bradykinin B1 receptor binding; conditions: CHO cell membranes, [3H]-[Des-Arg10] Kallidin radioligand
T1 construct: host or cells: CHO cells
T1 sequence (P46663 1-353): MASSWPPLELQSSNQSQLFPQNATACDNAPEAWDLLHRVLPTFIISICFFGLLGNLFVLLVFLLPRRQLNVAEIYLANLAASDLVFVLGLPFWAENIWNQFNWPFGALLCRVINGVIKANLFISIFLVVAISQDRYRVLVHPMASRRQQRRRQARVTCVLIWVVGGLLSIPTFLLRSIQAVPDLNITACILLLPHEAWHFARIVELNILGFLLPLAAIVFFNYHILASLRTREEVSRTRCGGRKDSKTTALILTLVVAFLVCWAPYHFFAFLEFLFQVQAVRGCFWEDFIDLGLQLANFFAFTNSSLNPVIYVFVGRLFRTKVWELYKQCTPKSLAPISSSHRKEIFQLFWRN
Experimental: Receptor Binding Assays 1. Human Recombinant Bradykinin B1 Receptor Binding
Binding assays were carried out on human recombinant bradykinin1 receptors (expressed in CHO cells) according to the Euroscreen Technical Data Sheet (Cat. No.: ES-091). 20 μg protein/tube was incubated with [3,4-prolyl-3,4-^3H(N)]-[Des-Arg^10] Kallidin as radioligand. Non specific binding was determined in the presence of 10 μM Lys-des-Arg^9-Bradykinin. The final incubation volume was 250 μl. Samples were incubated for 15 min. at 25° C. then were rapidly vacuum filtered through GF/B filters presoaked for at least 1 h in 0.5% PEI. Radioactivity was determined by liquid scintillation spectroscopy.

[2] = molecular target: T2, recombinant human B1 receptors (Homo sapiens, UniProt P46663); test: Antagonist potency by measurement of cytosolic calcium ion concentration in CHO-B1 cells (agonist LysDABK); format: cell-based; conditions: inhibition of LysDABK (EC80)-evoked [Ca2+]i elevation, fluo-4, read-out: B1 func.
T2 construct: host or cells: CHO (CHO-B1)
T2 sequence (P46663 1-353): T1 sequence (P46663 1-353)
Experimental: Assessment of Antagonist Potency at B1 and B2 Receptors In Vitro by Measurement of Cytosolic Calcium Ion Concentration with a Plate Reader Fluorimeter in Cells Expressing Recombinant Human B1 or B2 Receptors
Chinese hamster ovary (CHO) cells stably expressing recombinant human B1 (CHO-B1, Euroscreen) or B2 (CHO-B2, Perkin-Elmer) receptors were cultured in Dulbecco's Modified Eagle's Medium (DMEM) containing 10% Fetal Calf Serum (FCS), 100 U/ml penicillin, 0.1 mg/ml streptomycin, 0.25 μg/ml amphotericin B, 1% Minimum Essential Medium Eagle (MEM), non essential amino acid solution, 600 μg/ml G418, 1% pyruvate (for the B2 cell line). Cells were kept at 37° C. in a humidified incubator in an atmosphere of 5% CO2/95% air and were passaged 1:4 three times a week. Cells were plated at 1.5-2.5×10^4 cell/well on standard 96-well microplates, measurements of cytosolic calcium ion concentration ([Ca^2+]i) were carried out 1-2 days after cell plating.
Measurements of [Ca^2+]i were carried out on CHO-B1 and CHO-B2 cells stably expressing human B1 and B2 receptors, respectively. Cells were grown in standard 96-well microplates and before the measurement were loaded with a fluorescent Ca^2+-sensitive dye, fluo-4/AM (2 μM): after removing the culture medium the dye was added to the cells (dissolved in assay buffer: 145 mM NaCl, 5 mM KCl, 2 mM MgCl2, 2 mM CaCl2, 10 mM HEPES, 20 mM D-glucose, 2 mM probenecid, 100 μl/well) and cells were incubated at 37° C. in a humidified incubator in an atmosphere of 5% CO2/95% air for 40-120 min. To stop dye loading cells were washed twice with assay buffer. After washing, various concentrations of the test compounds (diluted in extracellular medium from a DMSO stock solution, final DMSO concentration was <0.1%) or buffer were added to each well depending on the experimental setup. After incubation at 37° C. for 20-25 min. baseline and agonist-evoked changes of [Ca^2+]i were measured column by column with a plate reader fluorimeter (Fluoroskan Ascent, Labsystems). Excitation and detection of emission was carried out from the bottom of the plate. Filters used for Fluo-4: excitation filter −485 nm, emission filter −538 nm. The whole measurement process was performed at 37° C. and was controlled by custom software. Inhibitory potency of the test compounds was assessed by measuring the reduction in the agonist-evoked [Ca^2+]i-elevation in the presence of different concentrations of the compounds. The agonists were LysDABK for CHO-B1, and bradykinin for CHO-B2 cells. Agonists were applied at an EC80 concentration, the EC80-values were derived from daily determined dose-response curves. Fluorescence data were expressed as ΔF/F (fluorescence change normalized to baseline). All treatments on a single plate were measured in multiple wells. Data from all wells with the same treatment were averaged and the average values were used for analysis. Inhibitory potency of a compound at a single concentration point was expressed as percent inhibition of the control agonist response. Sigmoidal concentration-inhibition curves were fitted to the data (derived from at least three independent experiments) and IC50-values were determined as the concentration that produces half of the maximal inhibition caused by the compound.

Ki [1]: < 100 nM
IC50 [2]: < 100 nM
Compound: O=C(CC1c2cc(F)ccc2-c2ccccc2N1S(=O)(=O)c1ccc(Cl)c(Cl)c1)NCCc1ccc(C2=NCCN2)cc1 (stereo not drawn) [Example 1, 2-[5-(3,4-Dichloro-benzenesulfonyl)-8-fluoro-5,6-dihydro-phenanthridin-6-yl]-N-{2-[4-(4,5-dihydro-1H-imidazol-2-yl)-phenyl]-ethyl}-acetamide hydrochloride]

Ki [1]: < 100 nM
IC50 [2]: < 100 nM
Compound: O=C(CC1c2ccccc2-c2ccccc2N1S(=O)(=O)c1ccc(Cl)c(Cl)c1)NCCc1ccc(C2=NCCN2)cc1 (stereo not drawn) [Example 2, 2-[5-(3,4-Dichloro-benzenesulfonyl)-5,6-dihydro-phenanthridin-6-yl]-N-{2-[4-(4,5-dihydro-1H-imidazol-2-yl)-phenyl]-ethyl}-acetamide hydrochloride]

Ki [1]: < 100 nM
IC50 [2]: < 100 nM
Compound: O=C(CC1c2ccccc2-c2ccccc2N1S(=O)(=O)c1ccc(Cl)c(Cl)c1)NCCN1CCN(c2ccncc2)CC1 (stereo not drawn) [Example 3]

Ki [1]: < 100 nM
IC50 [2]: < 100 nM
Compound: O=C(CC1c2ccccc2-c2ccccc2N1S(=O)(=O)c1ccc(Cl)c(Cl)c1)N[C@H]1CC[C@H](CCN2CCCC2)CC1 (stereo partly drawn) [Example 4, trans-2-[5-(3,4-Dichloro-benzenesulfonyl)-5,6-dihydro-phenanthridin-6-yl]-N-[4-(2-pyrrolidin-1-yl-ethyl)-cyclohexyl]-acetamide]

Ki [1]: < 100 nM
IC50 [2]: < 100 nM
Compound: O=C(CC1c2ccccc2-c2ccccc2N1S(=O)(=O)c1ccc(Cl)c(Cl)c1)NCCCN1CCN(c2ccncc2)CC1 (stereo not drawn) [Example 9, 2-[5-(3,4-Dichloro-benzenesulfonyl)-5,6-dihydro-phenanthridin-6-yl]-N-[3-(4-pyridin-4-yl-piperazin-1-yl)-propyl]-acetamide]

Ki [1]: < 100 nM
IC50 [2]: < 100 nM
Compound: Cc1ccc(S(=O)(=O)N2c3ccccc3-c3ccccc3C2CC(=O)NCCc2ccc(C3=NCCN3)cc2)cc1 (stereo not drawn) [Example 14, N-{2-[4-(4,5-Dihydro-1H-imidazol-2-yl)-phenyl]-ethyl}-2-[5-(toluene-4-sulfonyl)-5,6-dihydro-phenanthridin-6-yl]-acetamide hydrochloride]

Ki [1]: < 100 nM
IC50 [2]: < 100 nM
Compound: Cc1cc(C)c(S(=O)(=O)N2c3ccccc3-c3ccccc3C2CC(=O)NCCc2ccc(C3=NCCN3)cc2)c(C)c1 (stereo not drawn) [Example 15, N-{2-[4-(4,5-Dihydro-1H-imidazol-2-yl)-phenyl]-ethyl}-2-[5-(2,4,6-trimethyl-benzenesulfonyl)-5,6-dihydro-phenanthridin-6-yl]-acetamide hydrochloride]

Ki [1]: < 100 nM
IC50 [2]: < 100 nM
Compound: O=C(CC1c2cc(F)cc(F)c2-c2ccccc2N1S(=O)(=O)c1ccc(Cl)c(Cl)c1)NCCc1ccc(C2=NCCN2)cc1 (stereo not drawn) [Example 18, 2-[5-(3,4-Dichloro-benzenesulfonyl)-8,10-difluoro-5,6-dihydro-phenanthridin-6-yl]-N-{2-[4-(4,5-dihydro-1H-imidazol-2-yl)-phenyl]-ethyl}-acetamide hydrochloride]

Further lines, the molecule ahead of its results:

Compound: NCc1ccc(CC(NC(=O)CC(NS(=O)(=O)c2ccc3ccccc3c2)c2ccccc2)C(=O)N2CCCC2)cc1 (racemic) [Example 70003770, (±)-N-[1-(4-aminomethyl-benzyl)-2-oxo-2-pyrrolidin-1-yl-ethyl]-3-(naphthalene-2-sulfonylamino)-3-phenyl-propionamide, reference compound]
Ki [1]: > 500 nM
IC50 [2]: > 500 nM

Compound: CCCN1C(=O)C(NC(=O)Nc2ccc(N3CCC(N4CCCCC4)CC3)cc2)N=C(c2ccc(C)cc2)c2ccccc21 (racemic) [Example 70004387, (±)-N-[4-(1,4′-bipiperidin)-1′-yl-phenyl]-N′-[2,3-dihydro-5-(4-methyl-phenyl)-2-oxo-1-propyl-1H-1,4-benzodiazepin-3-yl]-urea, reference compound]
Ki [1]: < 100 nM
IC50 [2]: 100 to 500 nM

Compound: O=C(CC1c2ccccc2-c2ccccc2N1S(=O)(=O)c1ccc(Cl)c(Cl)c1)N1CCC(Cc2ccc(C3=NCCN3)cc2)CC1 (stereo not drawn) [Example 5, 2-[5-(3,4-Dichloro-benzenesulfonyl)-5,6-dihydro-phenanthridin-6-yl]-1-{4-[4-(4,5-dihydro-1H-imidazol-2-yl)-benzyl]-piperidin-1-yl}-ethanone]
Ki [1]: < 100 nM
IC50 [2]: < 100 nM

Compound: O=C(CC1c2ccccc2-c2ccccc2N1S(=O)(=O)c1ccc(Cl)c(Cl)c1)N1CCC(Cc2ccc(C3=NCCCN3)cc2)CC1 (stereo not drawn) [Example 6, 2-[5-(3,4-Dichloro-benzenesulfonyl)-5,6-dihydro-phenanthridin-6-yl]-1-{4-[4-(1,4,5,6-tetrahydro-pyrimidin-2-yl)-benzyl]-piperidin-1-yl}-ethanone]
Ki [1]: < 100 nM
IC50 [2]: < 100 nM

Compound: O=C(CC1c2ccccc2-c2ccccc2N1S(=O)(=O)c1ccc(Cl)c(Cl)c1)Nc1ccc(N2CCC(N3CCCCC3)CC2)cc1 (stereo not drawn) [Example 8, N-(4-[1,4′]Bipiperidinyl-1-yl-phenyl)-2-[5-(3,4-dichloro-benzenesulfonyl)-5,6-dihydro-phenanthridin-6-yl]-acetamide]
Ki [1]: < 100 nM
IC50 [2]: 100 to 500 nM

Compound: COc1ccc(S(=O)(=O)N2c3ccccc3-c3ccccc3C2CC(=O)NCCc2ccc(C3=NCCN3)cc2)cc1 (stereo not drawn) [Example 16, N-{2-[4-(4,5-Dihydro-1H-imidazol-2-yl)-phenyl]-ethyl}-2-[5-(4-methoxy-benzenesulfonyl)-5,6-dihydro-phenanthridin-6-yl]-acetamide hydrochloride]
Ki [1]: < 100 nM
IC50 [2]: < 100 nM

Compound: COc1cccc2c1-c1ccccc1N(S(=O)(=O)c1ccc(Cl)c(Cl)c1)C2CC(=O)NCCc1ccc(C2=NCCN2)cc1 (stereo not drawn) [Example 17, 2-[5-(3,4-Dichloro-benzenesulfonyl)-10-methoxy-5,6-dihydro-phenanthridin-6-yl]-N-{2-[4-(4,5-dihydro-1H-imidazol-2-yl)-phenyl]-ethyl}-acetamide hydrochloride]
Ki [1]: < 100 nM
IC50 [2]: < 100 nM

Compound: CC(=O)c1ccc2c(c1)C(CC(=O)NCCc1ccc(C3=NCCN3)cc1)N(S(=O)(=O)c1ccc(Cl)c(Cl)c1)c1ccccc1-2 (stereo not drawn) [Example 19, 2-[8-Acetyl-5-(3,4-dichloro-benzenesulfonyl)-5,6-dihydro-phenanthridin-6-yl]-N-{2-[4-(4,5-dihydro-1H-imidazol-2-yl)-phenyl]-ethyl}-acetamide hydrochloride]
Ki [1]: < 100 nM
IC50 [2]: 100 to 500 nM

Compound: N=C(N)c1ccc(CCNC(=O)CC2c3ccccc3-c3ccccc3N2S(=O)(=O)c2ccc(Cl)c(Cl)c2)cc1 (stereo not drawn) [Example 20, N-[2-(4-Carbamimidoyl-phenyl)-ethyl]-2-[5-(3,4-dichloro-benzenesulfonyl)-5,6-dihydro-phenanthridin-6-yl]-acetamide]
Ki [1]: < 100 nM
IC50 [2]: < 100 nM

Compound: COc1cccc2c1-c1ccccc1N(S(=O)(=O)c1ccc(Cl)c(Cl)c1)C2CC(=O)N[C@H]1CC[C@H](CCN2CCCC2)CC1 (stereo partly drawn) [Example 21, trans-2-[5-(3,4-Dichloro-benzenesulfonyl)-10-methoxy-5,6-dihydro-phenanthridine-6-yl]-N-[4-(2-pyrrolidin-1-ylethyl)-cyclohexyl]-acetamide]
Ki [1]: < 100 nM
IC50 [2]: < 100 nM
